Data set [1] deals with Boophilus microplus. Briefly: Boophilus microplus test (BOOPMI injection). Particulars: 10 μg/animal, injection into the abdomen, after 7 days. The format is in vivo. As for the experimental part: Boophilus microplus Test (BOOPMI Injection)
(§1) Solvent: dimethyl sulphoxide
To produce a suitable preparation of active compound, 10 mg of active compound are mixed with 0.5 ml of solvent and the concentrate is diluted with solvent to the desired concentration.
The active compound solution is injected into the abdomen (Boophilus microplus), and the animals are transferred into dishes and stored in a climate-controlled room. The activity is assessed by […] of fertile eggs.
After 7 days, the effect in % is determined 100% means that none of the ticks has laid any fertile eggs.

Data set [2] deals with caterpillars of the armyworm (Spodoptera frugiperda). Briefly: Spodoptera frugiperda test (SPODFR spray treatment). It is filed as in vivo. Conditions: foliar, 168 h, sprayed maize leaf discs, after 7 days, read-out: activity (kill of caterpillars). The protocol: Spodoptera frugiperda Test (SPODFR Spray Treatment)
Solvents: 78.0 parts by weight of acetone
(§2) • 1.5 parts by weight of dimethylformamide Emulsifier: 0.5 part by weight of alkylaryl polyglycol ether
(§3) To produce a suitable preparation of active compound, 1 part by weight of active compound is mixed with the stated amount of solvents and emulsifier, and the concentrate is diluted with emulsifier-containing water to the desired concentration.
Discs of maize leaves (Zea mays) are sprayed with an active compound preparation of the desired concentration and, after drying, populated with caterpillars of the armyworm (Spodoptera frugiperda).
After 7 days, the effect in % is determined. 100% means that all caterpillars have been killed; 0% means that none of the caterpillars have been killed.

For data set [3], the system named is Lucilia cuprina larvae. Briefly: Lucilia cuprina test (LUCICU). It is filed as in vivo. Conditions: 100 ppm, treated horse meat, after 2 days. As for the experimental part: Lucilia cuprina Test (LUCICU)
as §1
(§4) To produce a suitable preparation of active compound, 10 mg of active compound are mixed with 0.5 ml of dimethyl sulphoxide and the concentrate is diluted with water to the desired concentration.
Vessels containing horse meat treated with the active compound of the desired concentration are populated with about 20 Lucilia cuprina larvae.
After 2 days, the kill in % is determined 100% means that all of the larvae have been killed; 0% means that none of the larvae have been killed.

Data set [4] concerns larvae of the mustard beetle (Phaedon cochleariae). Briefly: Phaedon test (PHAECO spray treatment). The format is in vivo. Particulars: 168 h, sprayed Chinese cabbage discs, after 7 days, read-out: activity (kill of beetle larvae). As for the experimental part: Phaedon Test ([…] Spray Treatment) Solvents: 78.0 parts by weight of acetone • • 1.5 parts by weight of dimethylformamide Emulsifier: 0.5 part by weight of alkylaryl polyglycol ether To produce a suitable preparation of active compound, 1 part by weight of active compound is mixed with the stated amount of solvents and emulsifier, and the concentrate is diluted with emulsifier-containing water to the desired concentration. Discs of Chinese cabbage (Brassica pekinensis) are sprayed with an active compound preparation of the desired concentration and, after drying, populated with larvae of the mustard beetle (Phaedon cochleariae).

Data set [5] relates to adult Musca domestica. Briefly: Musca domestica test (MUSCDO). It is filed as in vivo. Conditions: treated sponge, after 2 days. The protocol:
Musca domestica Test (MUSCDO)
as §1, §4
Vessels containing a sponge treated with the active compound preparation of the desired concentration are populated with adult Musca domestica.
After 2 days, the kill in % is determined 100% means that all of the flies have been killed; 0% means that none of the flies have been killed.

Data set [6] is described as follows: logP by HPLC on reversed-phase columns (C 18), EEC Directive 79/831 Annex V.A8. The format is physicochemical. Conditions: reversed-phase C18 HPLC column; HPLC, reversed-phase C 18, acidic range pH 2.7, 0.1% aqueous formic acid/acetonitrile; read-out: log P. The protocol: The logP values reported in the table above and in the Preparation Examples were determined in accordance with EEC Directive 79/831 Annex V.A8 by HPLC (High Performance Liquid Chromatography) on reversed-phase columns (C 18), with the following methods:
The LC-MS determination in the acidic range is carried out at pH 2.7 using the mobile phases 0.1% aqueous formic acid and acetonitrile (contains 0.1% formic acid), linear gradient from 10% acetonitrile to 95% acetonitrile
Calibration was carried out using unbranched alkan-2-ones (having from 3 to 16 carbon atoms) with known logP values (the logP values were determined by the retention times using linear interpolation between two successive alkanones).

Data set [7] deals with green peach aphid (Myzus persicae). Briefly: Myzus test (MYZUPE spray treatment). The format is in vivo. Particulars: 144 h, sprayed Chinese cabbage discs, after 6 days, read-out: activity (kill of aphids). The protocol:
Myzus Test (MYZUPE Spray Treatment)
Solvents: 78 parts by weight of acetone
as §2, §3
Discs of Chinese cabbage (Brassica pekinensis) infested by all stages of the green peach aphid (Myzus persicae) are sprayed with an active compound preparation of the desired concentration.
After 6 days, the effect in % is determined. 100% means that all of the aphids have been killed; 0% means that none of the aphids have been killed.

For `Cc1cc(Cl)cc(C(=S)NC(C)(C)C)c1NC(=O)c1cc(Cn2nnc(C(F)(F)F)n2)nn1-c1ncccc1Cl` [Compound 6], the “activity (100% = none of the ticks has laid any fertile eggs)” value in data set [1] came out at 100%. Also, the pest or weed control at 100 g/ha in data set [2] and in data set [4] was 100% throughout. In addition, the results for the “efficacy (kill)” value in data set [3] and in data set [5] (100 ppm) were 100% and 90%, respectively. Besides, the chromatographic logP in data set [6] stood at 4.33.

With `CNC(=S)c1cc(Cl)cc(C)c1NC(=O)c1cc(Cn2nnc(C(F)(F)F)n2)nn1-c1ncccc1Cl` [Compound 7], the “activity (100% = none of the ticks has laid any fertile eggs)” value in data set [1] came to 100%. Besides, the pest or weed control at 100 g/ha in data set [7], in data set [2] and in data set [4] was 100% in each case. Further, the “efficacy (kill)” value in data set [3] turned out to be 100%; in data set [5] (20 ppm) it was 90%. The chromatographic logP in data set [6] was 3.42.

`Cc1cc(C#N)cc(OC(F)F)c1NC(=O)c1cc(Cn2nnc(C(F)(F)F)n2)nn1-c1ncccc1Cl` [Compound 9]: the values for the pest or weed control at 100 g/ha in data set [7], in data set [2] and in data set [4] were 90%, 100% and 100%, respectively. Also, the “efficacy (kill)” value came out at 100% in data set [3] and 80% in data set [5] (100 ppm). The chromatographic logP in data set [6] was determined as 2.85.

With `O=C(O)c1cc(Cl)cc(Cl)c1NC(=O)c1cc(Cn2cnc(C(F)F)n2)nn1-c1ncccc1Cl` [Compound 12], the pest or weed control at 500 g/ha in data set [2] (500 g/ha) and in data set [4] (500 g/ha) was 100% in each case. In addition, the “efficacy (kill)” value in data set [3] was 90%. Besides, the chromatographic logP in data set [6] was 2.2.

These data come from patent US8658800B2 (priority 2010, dated 2014).
